Assay results: ChEMBL document CHEMBL1201862, “PubChem BioAssay data set” (2004)
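Cells were grown in 96-well plates and exposed to each compound for 48 hours at five concentrations; endpoints were interpolated linearly between bracketing concentrations, or set to the highest concentration if not reached. The concentration for 50% growth inhibition is given as GI50.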 Active and inactive are the calls of the source. Cut-off read from the data, not from the text of the source: active = GI50 up to about 1.1 µM and inactive = higher.

What was measured:
Assay in all cases: DTP human tumour cell line panel, 48 h
[1] = tested on: CCRF-CEM
[2] = tested on: LOX IMVI
[3] = tested on: RXF 393
[4] = tested on: SNB-19
[5] = tested on: HOP-62
[6] = tested on: U-251
[7] = tested on: 786-0
[8] = tested on: UO-31
[9] = tested on: SF-539
[10] = tested on: A498
[11] = tested on: NCI-H226
[12] = tested on: SR
[13] = tested on: UACC-257
[14] = tested on: NCI-H460
[15] = tested on: HCC 2998
[16] = tested on: SN12C
[17] = tested on: COLO 205
[18] = tested on: Hs-578T
[19] = tested on: MCF7

Measured: GI50

Cc1ccc(C(=O)O)cc1NC(=O)c1cc(/C=C/c2ccccc2)[nH]c(=S)n1
inactive: [1] > 64.7 µM | [2] > 100 µM | [3] > 100 µM | [4] > 100 µM | [5] > 100 µM | [6] > 100 µM | [7] > 64.3 µM | [8] > 100 µM | [9] > 100 µM | [10] > 100 µM | [11] > 100 µM | [12] > 100 µM | [13] > 100 µM | [14] > 100 µM | [15] > 100 µM | [16] > 100 µM | [17] > 65.8 µM

COc1cc2c(cc1OCCCOc1cc(-c3ccc(F)cc3)nc(C)n1)N=C[C@@H]1CCCN1C2=O
inactive: [18] 24.7 µM | [1] 15.8 µM | [19] 29.4 µM | [2] 13.6 µM | [3] 20.2 µM | [4] 20.1 µM | [6] 14.8 µM | [7] 16.7 µM | [8] 17.7 µM | [9] 16.6 µM | [10] 12.7 µM | [11] 15.2 µM | [12] 10.4 µM | [13] 17.3 µM | [14] > 100 µM | [15] > 10 µM | [16] 16.5 µM | [17] 29.1 µM

O=C(N/C=C/C=C/Sc1ccccc1)OCc1ccccc1
inactive: [1] 52.1 µM | [2] 17.5 µM | [3] 20.1 µM | [4] 33.3 µM | [5] 24.5 µM | [6] 19.3 µM | [7] 16.9 µM | [8] 17.5 µM | [9] 16.5 µM | [11] 19.9 µM | [12] 36.3 µM | [13] 18.7 µM | [14] 21.7 µM | [15] 20.1 µM | [16] 17.1 µM | [17] 17.7 µM

C#CCn1c(=O)c2cccnc2n(CC#C)c1=O
inactive: [1] > 100 µM | [2] > 100 µM | [3] > 100 µM | [4] > 100 µM | [5] > 100 µM | [6] > 100 µM | [7] > 100 µM | [11] > 100 µM | [12] > 100 µM | [13] > 100 µM | [14] > 100 µM | [15] > 100 µM | [16] > 100 µM | [17] > 100 µM

Cc1ccc(S(=O)(=O)C(C#N)c2nc3ccccc3nc2N2CCOCC2)cc1 (stereo not drawn)
inactive: [1] 13.9 µM | [2] 16.6 µM | [4] 28.6 µM | [5] 20.5 µM | [6] 18.7 µM | [7] 30.2 µM | [8] 32.1 µM | [9] 38.8 µM | [10] 53.7 µM | [11] > 100 µM | [12] 28.1 µM | [13] 33.8 µM | [14] 17.9 µM | [15] 14.1 µM | [16] 28.2 µM | [17] 30.3 µM

COc1ccc2c(c1)CC[C@@H]1C2CC[C@]2(C)C(=O)N(CCN(C)C)C(=O)CC12 (stereo partly drawn)
inactive: [18] > 100 µM | [1] > 100 µM | [19] > 100 µM | [3] > 100 µM | [4] > 100 µM | [5] > 100 µM | [6] > 100 µM | [7] > 100 µM | [8] > 100 µM | [9] > 100 µM | [10] > 100 µM | [11] > 100 µM | [12] > 100 µM | [13] > 100 µM | [14] > 100 µM | [15] > 100 µM | [16] > 100 µM | [17] > 100 µM

O.O=C([O-])c1ccccc1Nc1ccccc1C(=O)[O-].[Zn+2]
inactive: [1] 24.1 µM | [2] 22 µM | [3] 20.6 µM | [4] 17.4 µM | [5] > 43.1 µM | [6] 18.7 µM | [7] 24.1 µM | [8] > 44.7 µM | [9] 37.7 µM | [10] 19.2 µM | [11] 31 µM | [12] 19 µM | [13] 14.3 µM | [14] > 65.9 µM | [15] > 100 µM | [16] 83.8 µM | [17] > 49.7 µM

Cc1oc2c(C)c3oc(=O)cc(C)c3cc2c1CNC(=O)[C@@H]1OCCOCCOCCOCCOCCOC1C(=O)O (stereo partly drawn)
inactive: [1] > 100 µM | [2] > 100 µM | [3] > 100 µM | [4] > 100 µM | [5] > 100 µM | [6] > 100 µM | [7] 21.2 µM | [8] > 100 µM | [9] > 100 µM | [10] > 100 µM | [11] > 100 µM | [12] > 100 µM | [13] > 100 µM | [14] > 100 µM | [15] > 100 µM | [16] > 100 µM | [17] > 100 µM
